Here are results for three molecules from ChEMBL document CHEMBL1151038, “-Glucan biosynthesis inhibitors isolated from fungi as hyphal malformation inducer” (1993).

Assay [1] deals with Saccharomyces cerevisiae. In words: In vitro inhibitory activity of Beta-1,3-glucan synthase of Saccharomyces cerevisiae at concentration of 200 ug/ml.
In assay [2] the test system is Saccharomyces cerevisiae. In words: In vitro inhibitory activity of Beta-1,3-glucan synthase of Saccharomyces cerevisiae at concentration of 400 ug/ml.
For assay [3], the system named is Saccharomyces cerevisiae. In words: In vitro inhibitory activity of Beta-1,3-glucan synthase of Saccharomyces cerevisiae at concentration of 50 ug/ml.
Assay [4] concerns Saccharomyces cerevisiae. In words: In vitro inhibitory activity of Beta-1,3-glucan synthase of Saccharomyces cerevisiae at concentration of 25 ug/ml.
Assay [5] relates to Saccharomyces cerevisiae. In words: In vitro inhibitory activity of Beta-1,3-glucan synthase of Saccharomyces cerevisiae at concentration of 100 ug/ml.
Assay [6] has as its system Saccharomyces cerevisiae. In words: In vitro inhibitory activity of Beta-1,3-glucan synthase of Saccharomyces cerevisiae at concentration of 800 ug/ml.
Assay [7] concerns Phytophthora capsici. In words: Minimum amount required to induce hyphal malformation in Phytophthora capsici. Type of assay: functional.
Assay [8] has as its system Saccharomyces cerevisiae. In words: In vitro inhibitory activity of Beta-1,3-glucan synthase of Saccharomyces cerevisiae at concentration of 12.5 ug/ml.

For orientation: inhibition means the relative decrease from the control value, in per cent. A low value points to a weak effect. Turning to `C[C@H]1C(=O)C(CO)=C[C@H](O)[C@H]1O`, the inhibition turned out to be 75% in assay [1]; 85% in assay [2]; 47% in assay [3]; 30% in assay [4]; 66% in assay [5]; 91% in assay [6]. The inhibition in assay [8] turned out to be 12%. The molecule also displayed an Activity in assay [7] of 100 ug disk-1.
With `C[C@H]1CCC/C=C/[C@@H]2C[C@H](O)C[C@H]2[C@H](O)/C=C/C(=O)O1` [BREFELDIN A], the inhibition in assay [1] is 0%; in assay [2] it was 6%; in assay [3], 0%; in assay [4], 0%; in assay [5], 0%; in assay [6], 0%. The molecule further yielded an inhibition in assay [8] of 0%. In addition, the Activity in assay [7] is 50 ug disk-1.
Turning to `CC(C)=C[C@H]1C[C@H](C)[C@]2(CC[C@]3(C)C[C@H]4[C@H](C(=O)C[C@@]4(C)O)/C(C=O)=C\C[C@H]32)O1` [OPHIOBOLIN A], the inhibition stood at 79% in assay [1]; 84% in assay [2]; 56% in assay [3]; 56% in assay [4]; 74% in assay [5]; 89% in assay [6]. In addition, the inhibition in assay [8] was 31%. The Activity in assay [7] was determined as 10 ug disk-1.
